# Results taken from PMC3198815 (PLoS ONE, 2011).
# Biological target: T1, xoFabV (Xanthomonas oryzae, UniProt Q2P9J6)
# T1 construct: gene fabV
# Conditions: weak binding, data not shown; no electron density in co-crystals
# T1 sequence (Q2P9J6 whole entry, looked up): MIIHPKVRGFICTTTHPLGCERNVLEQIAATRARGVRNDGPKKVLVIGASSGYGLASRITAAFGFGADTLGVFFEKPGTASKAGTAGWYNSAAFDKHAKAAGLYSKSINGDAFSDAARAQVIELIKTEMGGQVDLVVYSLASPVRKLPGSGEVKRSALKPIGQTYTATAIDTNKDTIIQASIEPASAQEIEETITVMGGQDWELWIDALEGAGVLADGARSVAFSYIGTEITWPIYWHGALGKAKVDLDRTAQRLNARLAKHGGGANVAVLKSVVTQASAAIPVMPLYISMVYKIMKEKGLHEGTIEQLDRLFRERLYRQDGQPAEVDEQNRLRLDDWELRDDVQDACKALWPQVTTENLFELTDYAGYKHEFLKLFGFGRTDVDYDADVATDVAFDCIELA
smiles,measurement,value
NC(=O)c1ccc[n+]([C@@H]2O[C@H](COP(=O)(O)OP(=O)(O)OC[C@H]3O[C@@H](n4cnc5c(N)ncnc54)[C@H](O)[C@@H]3O)[C@@H](O)[C@H]2O)c1 [NAD^+],isothermal titration calorimetry,NAD^+ binds weakly to xoFabV according to isothermal titration calorimetry assay (data not shown)
